Results reported in patent US20240384268A1, “Oligonucleotides” (Hudson Institute of Medical Research, priority 2021, published 2024).
“Also recorded” adds a separate entry of the source. In the oligonucleotide strings, read from the 5' end, every base follows the letter of its sugar. An asterisk marks phosphorothioate; unmarked linkages are phosphodiester. Other units and linkages are bracketed, terminal groups are in braces. A string of capitals states the bases alone. d = 2'-deoxy (DNA); m = 2'-O-methyl

Assays:
TLR7 = target: T1, TLR7 (Mus musculus, UniProt P58681); assay: B-406-AS ssRNA-induced TNFα in primary BMDMs; details: WT primary BMDMs; 100 nM ASO 1 h; 250 nM B-406-AS RNA overnight; vs dC20 co-treatment
T1 sequence (P58681 27-1050): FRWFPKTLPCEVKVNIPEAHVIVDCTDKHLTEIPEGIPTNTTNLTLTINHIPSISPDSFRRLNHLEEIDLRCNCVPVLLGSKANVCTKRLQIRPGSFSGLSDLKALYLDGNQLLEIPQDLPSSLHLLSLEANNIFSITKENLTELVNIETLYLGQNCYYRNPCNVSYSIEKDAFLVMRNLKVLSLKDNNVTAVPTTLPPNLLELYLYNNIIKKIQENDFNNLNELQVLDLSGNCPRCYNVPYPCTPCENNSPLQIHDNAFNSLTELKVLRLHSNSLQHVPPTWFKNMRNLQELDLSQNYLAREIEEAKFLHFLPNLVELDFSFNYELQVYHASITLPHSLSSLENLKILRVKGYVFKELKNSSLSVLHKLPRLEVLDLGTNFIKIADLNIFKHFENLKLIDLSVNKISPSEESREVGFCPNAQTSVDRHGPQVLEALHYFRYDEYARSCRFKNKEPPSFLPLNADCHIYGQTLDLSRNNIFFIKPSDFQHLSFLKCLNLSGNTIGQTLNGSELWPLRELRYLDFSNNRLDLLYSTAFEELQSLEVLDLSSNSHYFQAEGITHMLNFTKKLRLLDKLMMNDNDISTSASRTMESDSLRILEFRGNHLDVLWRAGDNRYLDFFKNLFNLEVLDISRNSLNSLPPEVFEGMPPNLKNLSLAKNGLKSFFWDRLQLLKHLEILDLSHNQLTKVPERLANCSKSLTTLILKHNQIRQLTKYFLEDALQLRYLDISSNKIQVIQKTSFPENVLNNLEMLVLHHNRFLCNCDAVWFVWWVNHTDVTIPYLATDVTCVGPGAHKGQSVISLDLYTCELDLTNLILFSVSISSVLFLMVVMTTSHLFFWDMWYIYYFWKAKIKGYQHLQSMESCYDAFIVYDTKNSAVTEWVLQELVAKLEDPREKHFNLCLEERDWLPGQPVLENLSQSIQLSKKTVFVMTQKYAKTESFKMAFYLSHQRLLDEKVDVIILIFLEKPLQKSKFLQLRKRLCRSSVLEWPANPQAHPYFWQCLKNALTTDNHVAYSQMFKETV

cGAS [1] = target: cGAS (Homo sapiens, UniProt Q8N884); assay: ISD70-driven IP-10 production in MG-63 cells; format: cell-based; design: endogenous in cells; details: C2-Mut1 500 nM 6 h, or ASO847 series ~30 min, ISD70 overnight
Sequence of cGAS (Homo sapiens, UniProt Q8N884) (Q8N884 whole entry): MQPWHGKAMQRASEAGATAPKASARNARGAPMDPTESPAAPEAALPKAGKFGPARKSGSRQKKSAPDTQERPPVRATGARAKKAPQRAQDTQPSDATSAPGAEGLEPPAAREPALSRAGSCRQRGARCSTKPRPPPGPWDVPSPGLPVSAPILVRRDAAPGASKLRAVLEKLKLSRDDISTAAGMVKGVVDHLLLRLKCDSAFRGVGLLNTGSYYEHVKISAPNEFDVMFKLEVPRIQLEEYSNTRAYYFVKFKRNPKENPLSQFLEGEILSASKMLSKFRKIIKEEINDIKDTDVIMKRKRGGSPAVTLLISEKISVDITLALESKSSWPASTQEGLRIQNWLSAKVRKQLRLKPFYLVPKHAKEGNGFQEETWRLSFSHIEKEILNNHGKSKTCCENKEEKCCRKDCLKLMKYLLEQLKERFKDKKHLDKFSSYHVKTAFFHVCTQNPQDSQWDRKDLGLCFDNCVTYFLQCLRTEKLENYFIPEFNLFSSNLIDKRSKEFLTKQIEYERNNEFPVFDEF

TLR4 = assay: LPS-driven IP-10 in MG-63 cells and immortalised mouse BMDMs; format: cell-based, human; details: 500 nM ASO 6 h; LPS 1 μg/ml overnight
[2] = test system: primary fibroblast-like synoviocytes (FLS) and bone marrow-derived MSCs; assay: Senescence β-galactosidase staining of primary FLS and MSCs; details: naked ASO 1 to 5 μM for one to two weeks; listed as C2-Mutl
cGAS [3] = target: cGAS (Mus musculus, UniProt Q8C6L5); assay: ISD-driven IP-10 production in immortalised mouse BMDMs; format: cell-based; design: endogenous in cells; host or cells: immortalised wild-type mouse bone marrow macrophages (iBMDMs); details: iBMDMs; 500 nM ASO; ISD overnight
Sequence of cGAS (Mus musculus, UniProt Q8C6L5) (Q8C6L5 whole entry): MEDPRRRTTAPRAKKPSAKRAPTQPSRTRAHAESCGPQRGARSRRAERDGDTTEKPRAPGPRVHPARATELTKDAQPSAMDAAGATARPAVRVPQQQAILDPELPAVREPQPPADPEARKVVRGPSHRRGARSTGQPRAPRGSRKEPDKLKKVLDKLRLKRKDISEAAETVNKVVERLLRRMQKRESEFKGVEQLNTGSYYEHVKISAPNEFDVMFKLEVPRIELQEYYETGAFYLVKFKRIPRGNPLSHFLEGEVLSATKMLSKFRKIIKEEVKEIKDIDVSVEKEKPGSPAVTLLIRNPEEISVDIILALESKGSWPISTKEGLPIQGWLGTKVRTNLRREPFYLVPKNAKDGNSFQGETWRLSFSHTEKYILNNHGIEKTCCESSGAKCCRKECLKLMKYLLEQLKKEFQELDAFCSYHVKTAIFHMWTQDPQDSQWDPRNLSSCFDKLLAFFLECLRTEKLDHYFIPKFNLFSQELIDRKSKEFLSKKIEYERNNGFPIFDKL

mG*mG*mU*A*T*C*C*C*C*C*C*C*C*C*C*C*C*C*C*C (GGUATCCCCCCCCCCCCCCC; antisense; sugars from the 5' end m3 d17, all phosphorothioate, methylation of C not given here) [[C2]Mut1-dC]
TNFα production induced by ssRNA sensing (in words) (TLR7): significantly reduced TNFα production

mG*mC*mG*mG*mU*A*T*C*C*A*T*G*T*C*C*mC*mA*mG*mG*mC (mG*mC*mG*mG*mU*dA*dT*dC*dC*dA*dT*dG*dT*dC*dC*mC*mA*mG*mG*mC; antisense) [C2-Mut1]
inhibition of ISD sensing in MG-63, 2′OMe ASOs (in words) (cGAS [1]): significantly impacting ISD sensing
IP-10 production driven by LPS (in words) (TLR4): did not significantly affect IP-10 production
senescence-associated β-galactosidase (SAB) positive cells (in words) [2]: senescence was strongly reduced; also recorded: more potent inhibitor of SAB than A151
ISD-induced IP-10 in immortalised mouse BMDMs (in words) (cGAS [3]): significantly impacting ISD sensing
TNFα production induced by ssRNA sensing (in words) (TLR7): significantly reduced TNFα production
